Values of other authors in patent US20250000898A1, “MAGNESIUM OXIDE-CONTAINING PHARMACEUTICAL COMPOSITION FOR TREATING PEDIATRIC CHRONIC FUNCTIONAL CONSTIPATION” (SETOLAS Holdings, Inc., priority 2021, published 2025).

Tests used:
[1] = tested on: children under 15 years of age diagnosed with chronic constipation; details: for percentage of patients treated successfully for constipation (success rate for treatment of constipation): children under 15 years, median age 2 years 11 months, 3 weeks (magnesium oxide: 50 mg/kg per day, 20 of 49 cases; lactulose: 9 of 50 cases)
[2] = 50 mg/kg daily, 3 weeks

SMILES	percentage of patients treated successfully for constipation (success rate for treatment of constipation) [1] [%]	average frequency of defecation ([1]; second and third weeks after administration, 50 mg/kg daily in two divided doses, 3 weeks)	average stool status score (Bristol Stool Scale) ([1]; second and third weeks after administration, 50 mg/kg daily, 3 weeks)	hypermagnesemia [2]
OC[C@H]1O[C@@H](O[C@@H]2[C@@H](CO)OC(O)(CO)[C@H]2O)[C@H](O)[C@@H](O)[C@H]1O (mixture of isomers) [lactulose]	18	–	–	–
[O]=[Mg] [magnesium oxide powder, magnesium oxide]	41	5.5±3.15	4.90±0.91	None of the patients exhibited hypermagnesemia
